Paper PMC3532132, “High-resolution structures of AidH complexes provide insights into a novel catalytic mechanism for N-acyl homoserine lactonase” (Acta Crystallographica Section D: Biological Crystallography, 2012)

Target: T1, AidH (Ochrobactrum sp. T63, UniProt D2J2T6)
T1 construct: full length (251 residues), pET22b(+), C-terminal His tag, E. coli BL21(DE3); monomer in solution; alpha/beta-hydrolase, metal-independent
T1 sequence (D2J2T6 1-271): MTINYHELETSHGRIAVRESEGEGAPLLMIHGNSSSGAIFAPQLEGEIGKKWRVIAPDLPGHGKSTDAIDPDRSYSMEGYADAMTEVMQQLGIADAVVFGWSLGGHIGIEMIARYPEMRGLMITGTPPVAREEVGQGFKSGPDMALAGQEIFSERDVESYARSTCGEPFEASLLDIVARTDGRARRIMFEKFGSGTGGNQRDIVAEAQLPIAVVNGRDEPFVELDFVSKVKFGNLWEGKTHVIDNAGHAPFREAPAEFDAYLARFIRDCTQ
Test: X-ray crystal structure, […] A, soaked crystal
Type: binding
Conditions: product of C4-HSL hydrolysis; active site, hydrogen bonds to Ser102, His248, Tyr160

Question: Which “X-ray crystal structure, 1.09 A, soaked crystal” value does the source give for `CCCC(=O)N[C@@H](CCO)C(=O)O` [C4-HS, N-butanoyl homoserine] here?
Answer: crystal structure of wild-type AidH complexed with the product C4-HS (AidH–C4-HS) was determined
